Where two headings read alike, the source gives them in different places.
What was measured:
[1] = tested on: NALM-6 cells (human B-lineage leukemia); test: SCID mouse model of human B-lineage leukemia; format: in vivo; details: SCID mice inoculated with NALM-6 cells; schedule of each treatment group as in Table 6
Method: (§1) The pharmacokinetic features of B43-GEN was evaluated in a SCID mouse model with human B-lineage leukemia as follows. SCID mice challenged with NALM-6 cells were treated with either 25 μg/mouse=168 pmols/mouse (>10-foldlower than the MTD) or 50 μg/mouse=335 pmols/mouse (>5-fold lower than the MTD). All control mice were treated with unconjugated GEN (10 μg/mouse=37 nmols/mouse), unconjugated B43 antibody (50 μg/mouse=335pmols/mouse), TXU(anti-CD7)-GEN control immunoconjugate (50 μg/mouse=335 pmols/mouse), or PBS.
All control mice treated with unconjugated GEN, unconjugated B43 antibody, TXU(anti-CD7)-GEN control immunoconjugate, or PBS died of disseminated human B-lineage leukemia at 24 to 61 days after inoculation (FIG. 8). […] These long-term surviving mice were electively killed at 142 days in order to examine their burden of human leukemia cells.

in vivo [2] = test: in vivo; design: species or system SCID mice; details: Minimal Leukemia Burden; for Kp: mouse, in vivo, iv
Method: FIG. 7[C] is a depiction of the plasma or tissue concentrations vs. time curves after i.v. injection of 58 pmol GEN (Δ) or BP43-GEN (o,) into SCID mice with end stage leukemia (dashed lines) or no leukemia (solid lines). Lines represent simulations from the physiological pharmacokinetic model, symbols depict measured concentrations.
as §1
This hypothesis is supported by measurement of higher concentrations of the immunoconjugate in tissues of SCID mice with end-stage leukemia, when compared to healthy SCID mice which have not been inoculated with leukemia cells (FIG. 7C). The spleen, liver, and lungs had the highest tissue-to-plasma ratio, with the tissue distribution ratio increasing approximately 2-fold in spleen and liver of mice with end-stage leukemia (Table 5). Although tissue distribution of the immunoconjugate into the femur was low in mice with a minimal leukemia burden, it increased 3-fold in mice with end-stage leukemia, reflecting binding of the immunoconjugate to CD19 positive human B-lineage leukemia cells infiltrating bone marrow.

RAMOS cells = test: Apoptosis assays in RAMOS cells (morphology, DNA flow cytometry, DNA fragmentation); format: cell-based, human
Text: DNA was then electrophoresed through a 1% agarose gel and visualized by UV light after staining with ethidium bromide.

[3] = tested on: RAMOS cells (human Burkitt's lymphoma); test: SCID mouse model of human B-lineage lymphoma; format: in vivo, SCID mice; details: 5×10^6 RAMOS cells; one value pooled over all control groups incl. PBS
Method: Control mice were treated with unconjugated GEN (10 μg/mouse=37 nmols/mouse), unconjugated B43 monoclonal antibody (50 μg/mouse=335 pmols/mouse), TXU(anti-CD7)-GEN control immunoconjugate (50 μg/mouse=335 pmols/mouse), or PBS. For comparison, some mice were treated with B43-pokeweed antiviral protein (PAP) immunotoxin (total=25 μg/mouse), which is an active anti-leukemia agent. Uckun et al., J. Exp. Med., 163, 347 (1986). Survival of the mice was monitored by daily observation and event times were measured from the day of inoculation of lymphoma cells to the day of death. The probability of event-free survival was determined and event-free interval curves were generated using the Kaplan-Meier product limit method as described by Uckun et al. New Engl. J. Med., 329, 1296 (1993).

in vivo [4] = format: in vivo, SCID mice; details: Minimal Leukemia Burden
Method: Lines represent two-compartment model simulations, symbols depict measured concentrations.
as §1

[5] = target: T1, CD19-associated LYN kinase (Homo sapiens, UniProt P07948); test: Immune complex kinase assay, LYN in treated NALM-6 cells; format: cell-based; details: NALM-6 cells treated 4 hours; immunoconjugate nanomolar, unconjugated GEN micromolar
T1 construct: LYN kinase immunoprecipitated from NALM-6 cells; endogenous in cells; host or cells: NALM-6
T1 sequence (P07948 2-512 limits assumed): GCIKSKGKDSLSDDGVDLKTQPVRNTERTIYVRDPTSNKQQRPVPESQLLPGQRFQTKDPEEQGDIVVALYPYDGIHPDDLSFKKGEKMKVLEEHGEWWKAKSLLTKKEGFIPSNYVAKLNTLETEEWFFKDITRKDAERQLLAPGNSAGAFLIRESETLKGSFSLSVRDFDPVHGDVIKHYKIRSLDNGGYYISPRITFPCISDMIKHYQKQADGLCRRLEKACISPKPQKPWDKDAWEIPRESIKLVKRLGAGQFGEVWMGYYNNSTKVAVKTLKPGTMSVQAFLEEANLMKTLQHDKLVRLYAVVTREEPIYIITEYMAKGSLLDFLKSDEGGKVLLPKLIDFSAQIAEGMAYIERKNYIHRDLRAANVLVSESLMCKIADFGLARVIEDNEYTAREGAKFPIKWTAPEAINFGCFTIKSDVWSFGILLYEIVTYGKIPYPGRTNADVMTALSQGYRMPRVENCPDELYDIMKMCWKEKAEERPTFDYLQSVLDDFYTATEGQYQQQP
Method: Immune complex kinase assays were performed using acid-denatured rabbit enolase as an exogenous PTK substrate as previously described by Uckun et al. in J. Biol. Chem., 268, 21172 (1993).
Controls were treated with unconjugated GEN, TXU(anti-CD7)-GEN immunoconjugate directed against the CD7/Tp41 T-cell surface antigen, unconjugated and unmodified B43 antibody, or SANPAH-modified unconjugated B43 antibody.

[6] = tested on: tyrosine phosphorylation of abundant protein substrates in NALM-6 cells; test: Antiphosphotyrosine immunoblotting, NALM-6 cells; format: cell-based, human; details: immunoconjugate nanomolar, unconjugated GEN micromolar
[7] = target: T2, human topoisomerase II enzyme (Homo sapiens, UniProt P11388); test: Topoisomerase II Drug Screening kit (pRYG relaxation/cleavage); format: biochemical; details: B43-GEN at micromolar concentrations
T2 construct: purchased Topogen, Inc., Columbus, Ohio
T2 sequence (P11388 whole entry): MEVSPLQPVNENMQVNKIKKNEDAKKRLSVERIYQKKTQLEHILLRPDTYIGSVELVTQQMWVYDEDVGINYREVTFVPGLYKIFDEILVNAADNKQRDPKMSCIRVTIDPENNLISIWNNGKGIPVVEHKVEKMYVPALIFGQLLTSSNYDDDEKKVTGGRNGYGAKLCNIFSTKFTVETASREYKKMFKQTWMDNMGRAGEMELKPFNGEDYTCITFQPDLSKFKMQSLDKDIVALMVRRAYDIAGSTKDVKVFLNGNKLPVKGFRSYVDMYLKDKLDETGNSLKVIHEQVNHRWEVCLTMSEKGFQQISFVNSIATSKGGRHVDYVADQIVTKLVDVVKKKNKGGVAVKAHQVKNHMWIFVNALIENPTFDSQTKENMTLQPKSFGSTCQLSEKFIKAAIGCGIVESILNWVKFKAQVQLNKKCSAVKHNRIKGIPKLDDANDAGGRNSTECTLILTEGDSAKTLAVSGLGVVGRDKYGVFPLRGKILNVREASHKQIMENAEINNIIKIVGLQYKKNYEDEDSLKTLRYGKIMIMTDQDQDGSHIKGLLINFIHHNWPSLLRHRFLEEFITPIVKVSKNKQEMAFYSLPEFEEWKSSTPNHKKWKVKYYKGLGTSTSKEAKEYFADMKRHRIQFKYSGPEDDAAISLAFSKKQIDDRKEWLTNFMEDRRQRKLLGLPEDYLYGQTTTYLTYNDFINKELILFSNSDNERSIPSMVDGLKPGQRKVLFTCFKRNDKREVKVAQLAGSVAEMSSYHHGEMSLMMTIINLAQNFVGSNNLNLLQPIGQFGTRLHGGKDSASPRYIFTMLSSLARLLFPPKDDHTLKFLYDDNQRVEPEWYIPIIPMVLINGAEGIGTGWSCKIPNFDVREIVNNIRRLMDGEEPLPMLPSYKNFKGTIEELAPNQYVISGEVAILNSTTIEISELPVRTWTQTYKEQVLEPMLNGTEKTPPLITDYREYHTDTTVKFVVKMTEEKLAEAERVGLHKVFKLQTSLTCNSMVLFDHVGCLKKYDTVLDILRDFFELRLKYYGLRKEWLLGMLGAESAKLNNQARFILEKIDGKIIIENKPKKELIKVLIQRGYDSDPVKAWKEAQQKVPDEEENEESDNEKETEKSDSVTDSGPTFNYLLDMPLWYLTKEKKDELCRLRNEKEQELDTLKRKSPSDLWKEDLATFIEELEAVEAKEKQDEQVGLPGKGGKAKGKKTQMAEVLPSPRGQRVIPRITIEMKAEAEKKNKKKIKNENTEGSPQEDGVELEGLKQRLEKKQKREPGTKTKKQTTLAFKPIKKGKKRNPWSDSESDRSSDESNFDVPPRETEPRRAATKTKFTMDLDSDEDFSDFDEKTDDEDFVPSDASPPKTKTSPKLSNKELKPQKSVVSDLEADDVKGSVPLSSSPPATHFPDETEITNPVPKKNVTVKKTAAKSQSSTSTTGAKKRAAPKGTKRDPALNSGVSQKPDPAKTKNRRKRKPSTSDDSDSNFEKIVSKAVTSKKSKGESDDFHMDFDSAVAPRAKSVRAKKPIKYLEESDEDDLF
Text: The kit is based upon formation of DNA cleavage products after treatment of a supercoiled DNA substrate (pRYG) containing a single high affinity topoisomerase II recognition and cleavage site.

O=NN(CCCl)C(=O)NCCCl [Carmustine]
EFS (%) 60 days [1]: 20% | EFS (%) 120 days [1]: 0% | Median EFS [1]: 54 days

O=P1(N(CCCl)CCCl)NCCCO1 (stereo not drawn) [Cyclophosphamide]
EFS (%) 60 days [1]: 40% | EFS (%) 120 days [1]: 10% | Median EFS [1]: 54 days

Nc1ccn([C@@H]2O[C@H](CO)[C@@H](O)[C@@H]2O)c(=O)n1 [Cytarabine]
EFS (%) 60 days [1]: 20% | EFS (%) 120 days [1]: 0% | Median EFS [1]: 57 days

COc1cccc2c1C(=O)c1c(O)c3c(c(O)c1C2=O)C[C@@](O)(C(=O)CO)C[C@@H]3O[C@H]1C[C@H](N)[C@H](O)[C@H](C)O1 [Doxorubicin]
EFS (%) 60 days [1]: 20% | EFS (%) 120 days [1]: 0% | Median EFS [1]: 49 days

COc1cc([C@@H]2c3cc4c(cc3[C@@H](O[C@@H]3O[C@@H]5CO[C@@H](C)O[C@H]5[C@H](O)[C@H]3O)[C@H]3COC(=O)[C@H]23)OCO4)cc(OC)c1O [Etoposide]
EFS (%) 60 days [1]: 60% | EFS (%) 120 days [1]: 30% | Median EFS [1]: 66 days

O=c1c(-c2ccc(O)cc2)coc2cc(O)cc(O)c12 [GEN, 5,7,4'-trihydroxyisoflavone]
Clearance, Kidney (in vivo [2]): 18.7 µL/h/g | Clearance, Liver (in vivo [2]): 40.9 µL/h/g | Total Clearance (in vivo [2]): 59.6 µL/h/g | Kp (in vivo [2]; read-out: Linear Binding Constant (R), Brain): 0.027 | Kp (in vivo [2]; read-out: Linear Binding Constant (R), Heart): 0.335 | Kp (in vivo [2]; read-out: Linear Binding Constant (R), Kidney): 0.253 | Kp (in vivo [2]; read-out: Linear Binding Constant (R), Liver): 0.5 | Kp (in vivo [2]; read-out: Linear Binding Constant (R), Lungs): 0.531 | Kp (in vivo [2]; read-out: Linear Binding Constant (R), Muscle): 0.095 | Kp (in vivo [2]; read-out: Linear Binding Constant (R), Skin): 0.208 | Kp (in vivo [2]; read-out: Linear Binding Constant (R), Spleen): 0.04 | Kp (in vivo [2]; residual drug not accounted for by tissues studied, read-out: Linear Binding Constant (R), Rest of Body): 1.11 | DNA fragmentation / apoptosis by agarose gel electrophoresis (RAMOS cells; RAMOS cells, 8-24 hours, immunoconjugates nanomolar, unconjugated GEN micromolar): no fragmentation | DNA fragmentation by the unconjugated moieties (RAMOS cells; high concentrations, FIG. 4B lower panel): induced DNA fragmentation | Median event-free survival [3]: 48.0 days | Cl (systemic clearance from plasma) (in vivo [4]): 49.7 µL/h/g | Kcp (distribution rate constant from central to peripheral compartment) (in vivo [4]): 1.341 h⁻¹ | Kpc (distribution rate constant from peripheral to central compartment) (in vivo [4]): 0.549 h⁻¹ | Vc (central volume of distribution) (in vivo [4]): 87.0 µL/g | k el (in vivo [4]; mouse, in vivo, iv, read-out: Ke (elimination rate constant) (converted)): 0.000159 s⁻¹ | half-life (in vivo [4]; mouse, in vivo, iv, read-out: T1/2β (elimination halflife) (converted)): 306 min | Inhibition of LYN kinase (autophosphorylation, enolase substrate phosphorylation) [5]: failed to affect | Tyrosine dephosphorylation of abundant protein substrates [6]: failed to affect

C[C@H]1C[C@@H]2[C@H](C(=O)C[C@@]3(C)[C@H]2CC[C@]3(O)C(=O)CO)[C@@]2(C)C=CC(=O)C=C12 [Methylprednisone]
EFS (%) 60 days [1]: 40% | EFS (%) 120 days [1]: 20% | Median EFS [1]: 56 days

CC(=O)O[C@H]1C(=O)[C@@]2(C)[C@H]([C@H](OC(=O)c3ccccc3)[C@]3(O)C[C@H](OC(=O)[C@H](O)[C@@H](NC(=O)c4ccccc4)c4ccccc4)C(C)=C1C3(C)C)[C@]1(OC(C)=O)CO[C@@H]1C[C@@H]2O [Taxol]
EFS (%) 60 days [1]: 0% | EFS (%) 120 days [1]: 0% | Median EFS [1]: 37 days

CC[C@@]1(O)C(=O)OCc2c1cc1n(c2=O)Cc2cc3c(CN(C)C)c(O)ccc3nc2-1 [Topotecan]
EFS (%) 60 days [1]: 18% | EFS (%) 120 days [1]: 0% | Median EFS [1]: 44 days

CC[C@]1(O)C[C@H]2CN(CCc3c([nH]c4ccccc34)[C@@](C(=O)OC)(c3cc4c(cc3OC)N(C=O)[C@H]3[C@@](O)(C(=O)OC)[C@H](OC(C)=O)[C@]5(CC)C=CCN6CC[C@]43[C@@H]65)C2)C1 [Vincristine]
EFS (%) 60 days [1]: 0% | EFS (%) 120 days [1]: 0% | Median EFS [1]: 51 days

COc1cc([C@@H]2c3cc4c(cc3[C@@H](O[C@@H]3O[C@@H]5CO[C@@H](c6cccs6)O[C@H]5[C@H](O)[C@H]3O)[C@H]3COC(=O)[C@H]23)OCO4)cc(OC)c1O [teniposide (VM-26), teniposide]
Inhibition of topoisomerase II (relaxation of supercoiled pRYG DNA) [7]: impairs the ability of human topoisomerase II to relax the supercoiled DNA substrate

L-asparaginase
EFS (%) 60 days [1]: 0% | EFS (%) 120 days [1]: 0% | Median EFS [1]: 44 days

Source: patent publication US5587459A, “Immunoconjugates comprising tyrosine kinase inhibitors” (Regents of the University of Minnesota, priority 1994, dated 1996)
